Source: the supplement of paper PMC11208160

Assay: recombinant UMI read abundance after kanamycin selection (control-corrected) (log10(CPM+1)); higher = more efficient recombination; extreme values may be limits of the assay; sequences stand for … in AGTGCAGAGAAAATCGGCCAGTTTTCTCTGCCTGCAGTCCGCATGCCGTGGGACCCCTTGGGTTCTAACCTGTTGCCTAGATTTATGCAGCGGACTGCCTTTCTCCCAAAGTGATAAACCGG…AGGTTGGTTTCACT; site = the 11-nt donor
Procedure, shortened: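 Counts of recombinant UMIs were reported as log10(CPM+1). Before that, they were converted to CPM, averaged over replicates and scaled using control-derived factors. They came from PCR across the donor–target junction after Escherichia coli carrying the pair library and target plasmid was plated on IPTG (0.07 mM) plus kanamycin, or unselected, in two replicates each.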
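Also: IS621 bridge recombinase in Escherichia coli cells against a fixed T5 target plasmid.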

GAGAATGCATGGACCGGTTTTCCCGGTAATCCGTATTTGCT (site GAGAATGCTAG)
recombinant UMI read abundance (log10): 2.16

GAGACGCCATGGACCGGTTTTCCCGGTAATCCGTATTTGAT (site GAGACGCCTAT)
recombinant UMI read abundance (log10): 0.566

GAGATTCCATGGACCGGTTTTCCCGGTAATCCGTATTTGGG (site GAGATTCCTCC)
recombinant UMI read abundance (log10): 0.0141

GAGCACACATGGACCGGTTTTCCCGGTAATCCGTATTTGAT (site GAGCACACTAT)
recombinant UMI read abundance (log10): 1.9

GAGCACACATGGACCGGTTTTCCCGGTAATCCGTATTTGAT (site GAGCCCACTAT)
recombinant UMI read abundance (log10): 0.0144

GAGCACACATGGACCGGTTTTCCCGGTAATCCGTATTTGAT (site GAGCGCACTAT)
recombinant UMI read abundance (log10): 0.00425

GAGCACACATGGACCGGTTTTCCCGGTAATCCGTATTTGAT (site GAGCTCACTAT)
recombinant UMI read abundance (log10): 0

GAGCCGGCATGGACCGGTTTTCCCGGTAATCCGTATTTGAA (site GAGCCGGCTTT)
recombinant UMI read abundance (log10): 0.241

GAGCCGTCATGGACCGGTTTTCCCGGTAATCCGTATTTGAT (site GAGCCGTCTAT)
recombinant UMI read abundance (log10): 1.32

GAGCCTCCATGGACCGGTTTTCCCGGTAATCCGTATTTGAG (site GAGCCTCCTCT)
recombinant UMI read abundance (log10): 0.0215

GAGCGCTCATGGACCGGTTTTCCCGGTAATCCGTATTTGCG (site GAGCGCTCTCG)
recombinant UMI read abundance (log10): 2.26

GAGCGGACATGGACCGGTTTTCCCGGTAATCCGTATTTGGC (site GAGCGGACTGC)
recombinant UMI read abundance (log10): 2.85

GAGCTACCATGGACCGGTTTTCCCGGTAATCCGTATTTGGC (site GAGCTACCTGC)
recombinant UMI read abundance (log10): 0

GAGCTAGCATGGACCGGTTTTCCCGGTAATCCGTATTTGAA (site AAGCTAGCTTT)
recombinant UMI read abundance (log10): 1.5

GAGCTAGCATGGACCGGTTTTCCCGGTAATCCGTATTTGAA (site CAGCTAGCTTT)
recombinant UMI read abundance (log10): 0.896

GAGCTAGCATGGACCGGTTTTCCCGGTAATCCGTATTTGAA (site GAGCTAGCTTT)
recombinant UMI read abundance (log10): 2.14

GAGCTAGCATGGACCGGTTTTCCCGGTAATCCGTATTTGAA (site TAGCTAGCTTT)
recombinant UMI read abundance (log10): 1.63

GAGCTCACATGGACCGGTTTTCCCGGTAATCCGTATTTGAA (site GAGCTCACTAT)
recombinant UMI read abundance (log10): 0.839

GAGCTCACATGGACCGGTTTTCCCGGTAATCCGTATTTGAA (site GAGCTCACTCT)
recombinant UMI read abundance (log10): 0.0248

GAGCTCACATGGACCGGTTTTCCCGGTAATCCGTATTTGAA (site GAGCTCACTGT)
recombinant UMI read abundance (log10): 0.716

GAGCTCACATGGACCGGTTTTCCCGGTAATCCGTATTTGAA (site GAGCTCACTTT)
recombinant UMI read abundance (log10): 1.43

GAGCTCACATGGACCGGTTTTCCCGGTAATCCGTATTTGAG (site GAGCTCACTAT)
recombinant UMI read abundance (log10): 0.277

GAGCTCACATGGACCGGTTTTCCCGGTAATCCGTATTTGAG (site GAGCTCACTCT)
recombinant UMI read abundance (log10): 0.665

GAGCTCACATGGACCGGTTTTCCCGGTAATCCGTATTTGAG (site GAGCTCACTGT)
recombinant UMI read abundance (log10): 0

GAGCTCACATGGACCGGTTTTCCCGGTAATCCGTATTTGAG (site GAGCTCACTTT)
recombinant UMI read abundance (log10): 0.00749

GAGCTCCCATGGACCGGTTTTCCCGGTAATCCGTATTTGAT (site GAGCTCACTAT)
recombinant UMI read abundance (log10): 0.00938

GAGCTCCCATGGACCGGTTTTCCCGGTAATCCGTATTTGAT (site GAGCTCCCTAT)
recombinant UMI read abundance (log10): 1.07

GAGCTCCCATGGACCGGTTTTCCCGGTAATCCGTATTTGAT (site GAGCTCGCTAT)
recombinant UMI read abundance (log10): 0

GAGCTCCCATGGACCGGTTTTCCCGGTAATCCGTATTTGAT (site GAGCTCTCTAT)
recombinant UMI read abundance (log10): 2

GAGCTCTCATGGACCGGTTTTCCCGGTAATCCGTATTTGAT (site GAGCTCACTAT)
recombinant UMI read abundance (log10): 0.0184

GAGCTCTCATGGACCGGTTTTCCCGGTAATCCGTATTTGAT (site GAGCTCCCTAT)
recombinant UMI read abundance (log10): 1.06

GAGCTCTCATGGACCGGTTTTCCCGGTAATCCGTATTTGAT (site GAGCTCGCTAT)
recombinant UMI read abundance (log10): 0.0051

GAGCTCTCATGGACCGGTTTTCCCGGTAATCCGTATTTGAT (site GAGCTCTCTAT)
recombinant UMI read abundance (log10): 2.58

GAGCTTCCATGGACCGGTTTTCCCGGTAATCCGTATTTGTC (site GAGCTTCCTGA)
recombinant UMI read abundance (log10): 0.576

GAGGAATCATGGACCGGTTTTCCCGGTAATCCGTATTTGCG (site AAGGAATCTCG)
recombinant UMI read abundance (log10): 2.23

GAGGAATCATGGACCGGTTTTCCCGGTAATCCGTATTTGCG (site CAGGAATCTCG)
recombinant UMI read abundance (log10): 2.04

GAGGAATCATGGACCGGTTTTCCCGGTAATCCGTATTTGCG (site GAGGAATCTCG)
recombinant UMI read abundance (log10): 2.47

GAGGAATCATGGACCGGTTTTCCCGGTAATCCGTATTTGCG (site TAGGAATCTCG)
recombinant UMI read abundance (log10): 2.25

GAGGACGCATGGACCGGTTTTCCCGGTAATCCGTATTTGAG (site GAGGACGCTCT)
recombinant UMI read abundance (log10): 1.9

GAGGAGACATGGACCGGTTTTCCCGGTAATCCGTATTTGCC (site GAGGAGACTGG)
recombinant UMI read abundance (log10): 1.22

GAGGCACCATGGACCGGTTTTCCCGGTAATCCGTATTTGCA (site GAGGCACCTTG)
recombinant UMI read abundance (log10): 0.344

GAGGCACCATGGACCGGTTTTCCCGGTAATCCGTATTTGCA (site GCGGCACCTTG)
recombinant UMI read abundance (log10): 0

GAGGCACCATGGACCGGTTTTCCCGGTAATCCGTATTTGCA (site GGGGCACCTTG)
recombinant UMI read abundance (log10): 0

GAGGCACCATGGACCGGTTTTCCCGGTAATCCGTATTTGCA (site GTGGCACCTTG)
recombinant UMI read abundance (log10): 0

GAGGCCTCATGGACCGGTTTTCCCGGTAATCCGTATTTGAG (site GAGGCCTCTCT)
recombinant UMI read abundance (log10): 1.42

GAGGTGGCATGGACCGGTTTTCCCGGTAATCCGTATTTGGC (site GAGGTGGCTGC)
recombinant UMI read abundance (log10): 2.13

GAGTACGCATGGACCGGTTTTCCCGGTAATCCGTATTTGAT (site GAGTACGCTAT)
recombinant UMI read abundance (log10): 1.99

GAGTAGTCATGGACCGGTTTTCCCGGTAATCCGTATTTGGA (site GAGTAGTCTTC)
recombinant UMI read abundance (log10): 2.7

GAGTCAGCATGGACCGGTTTTCCCGGTAATCCGTATTTGCC (site GAGTCAGCTGG)
recombinant UMI read abundance (log10): 1.07

GAGTTCACATGGACCGGTTTTCCCGGTAATCCGTATTTGAT (site GAGATCACTAT)
recombinant UMI read abundance (log10): 0.00366

GAGTTCACATGGACCGGTTTTCCCGGTAATCCGTATTTGAT (site GAGCTCACTAT)
recombinant UMI read abundance (log10): 0.905

GAGTTCACATGGACCGGTTTTCCCGGTAATCCGTATTTGAT (site GAGGTCACTAT)
recombinant UMI read abundance (log10): 0

GAGTTCACATGGACCGGTTTTCCCGGTAATCCGTATTTGAT (site GAGTTCACTAT)
recombinant UMI read abundance (log10): 1.69

GAGTTGTCATGGACCGGTTTTCCCGGTAATCCGTATTTGTT (site GAGTTGTCTAA)
recombinant UMI read abundance (log10): 2.01

GATAAACCATGGACCGGTTTTCCCGGTAATCCGTATTTGGT (site GAAAAACCTAC)
recombinant UMI read abundance (log10): 0

GATAAACCATGGACCGGTTTTCCCGGTAATCCGTATTTGGT (site GACAAACCTAC)
recombinant UMI read abundance (log10): 0

GATAAACCATGGACCGGTTTTCCCGGTAATCCGTATTTGGT (site GAGAAACCTAC)
recombinant UMI read abundance (log10): 0

GATAAACCATGGACCGGTTTTCCCGGTAATCCGTATTTGGT (site GATAAACCTAC)
recombinant UMI read abundance (log10): 0

GATAAAGCATGGACCGGTTTTCCCGGTAATCCGTATTTGGG (site GATAAAGCTCC)
recombinant UMI read abundance (log10): 0.172

GATACCACATGGACCGGTTTTCCCGGTAATCCGTATTTGCC (site GATACCACTGG)
recombinant UMI read abundance (log10): 1.33

GATACTGCATGGACCGGTTTTCCCGGTAATCCGTATTTGCC (site GATACTGCTGG)
recombinant UMI read abundance (log10): 0.895

GATACTGCATGGACCGGTTTTCCCGGTAATCCGTATTTGCC (site GCTACTGCTGG)
recombinant UMI read abundance (log10): 0.748

GATACTGCATGGACCGGTTTTCCCGGTAATCCGTATTTGCC (site GGTACTGCTGG)
recombinant UMI read abundance (log10): 1.73

GATACTGCATGGACCGGTTTTCCCGGTAATCCGTATTTGCC (site GTTACTGCTGG)
recombinant UMI read abundance (log10): 1.4

GATAGACCATGGACCGGTTTTCCCGGTAATCCGTATTTGGC (site GATAGACCTGC)
recombinant UMI read abundance (log10): 0

GATAGCACATGGACCGGTTTTCCCGGTAATCCGTATTTGCG (site GATAGCACTCG)
recombinant UMI read abundance (log10): 0.578

GATAGGACATGGACCGGTTTTCCCGGTAATCCGTATTTGAC (site GATAGGACTGT)
recombinant UMI read abundance (log10): 2.34

GATAGGACATGGACCGGTTTTCCCGGTAATCCGTATTTGAC (site GATCGGACTGT)
recombinant UMI read abundance (log10): 0.114

GATAGGACATGGACCGGTTTTCCCGGTAATCCGTATTTGAC (site GATGGGACTGT)
recombinant UMI read abundance (log10): 0.531

GATAGGACATGGACCGGTTTTCCCGGTAATCCGTATTTGAC (site GATTGGACTGT)
recombinant UMI read abundance (log10): 0.386

GATAGGACATGGACCGGTTTTCCCGGTAATCCGTATTTGTT (site GATAGGACTAA)
recombinant UMI read abundance (log10): 1.43

GATCATACATGGACCGGTTTTCCCGGTAATCCGTATTTGCT (site GATCATACTAG)
recombinant UMI read abundance (log10): 1.82

GATCCCGCATGGACCGGTTTTCCCGGTAATCCGTATTTGTC (site GATCCCGCTGA)
recombinant UMI read abundance (log10): 0.846

GATCCGGCATGGACCGGTTTTCCCGGTAATCCGTATTTGAT (site GATCCGGCTAT)
recombinant UMI read abundance (log10): 0.0999

GATGATCCATGGACCGGTTTTCCCGGTAATCCGTATTTGCT (site GATAATCCTAG)
recombinant UMI read abundance (log10): 0
